Tests used:
LCoR = assay: Doxorubicin treatment of breast cancer cells, LCoR mRNA by qRT-PCR; assay type: cell-based, human; conditions: 360 nM during 48 hours, MDA-MB-231 cells
Protocol: Low dose treatment of breast cancer cells (360 nM during 48 hours) induced an increase of 2.3 fold change mRNA expression of LCoR in MDA-MB-231 cells.
Cell lines, culture conditions and treatments. All cell lines used in the study, including mammary epithelial cell lines (human HMLE), breast cancer cell lines (human MDA-MB-231 and mouse 4TO7; PyMT8119; AT3 cell lines) and other cell lines (HEK293T, H29 and HeLa), were cultured using the standard conditions according the American Type Culture Collection (ATCC) instructions. Doxorrubicin treatment was performed at 360 nM during 48 hours in MDA-MB-231 cells.
qRT-PCR analyses. Total mRNA was isolated using the RNAeasy isolation Kit (QIAGEN). mRNA reverse transcription was done using Applied Biosystems reactants and real-time quantitative PCR performed using the Power SYBR green PCR master mix (Applied Biosystems). All analyses were performed using an ABI 7900HT PCR machine. mRNA expression was normalized by the expression of GAPDH in each sample.

PyMT8119-OVA cells = assay: Cytotoxic T-cell lymphocyte (CTL) co-culture assay; assay type: cell-based, mouse; conditions: OT-I CD8+ T-cells co-cultured with LCoR-OE tumor cells, in combination with anti-PD-L1
Text: These paradoxical effects of LCoR, increased immunogenicity vs. increased PD-L1, poses LCoR expressing cells as largely responsive cells to anti-PD-L1 immune-checkpoint blockade therapy.
The transgenic OT-I mouse model strain with specific TCR for the OVA-derived peptide SIINFEKL MHC-I presented, were used to isolate splenocytes and CD8+T-cells that specifically recognize the SIINFEKL peptide (OVA 257-264). 9-week OT-I mice were sacrificed to obtain the spleen. Using mechanical dissociation of the spleen over a sterile 40 μm mesh screen. Total splenocytes were plated in six well plates and non-attached T cells were separated from adherent dendritic cells (DC) after 24 hours. CD8+T-cells were isolated by FACS.
Cytotoxic T-cell lymphocyte (CTL) co-culture assays. CD8+ T-cells were isolated from the spleen of OT-I mice and activated in culture with OVA peptide during 48 hours. Activated CD8+ T-cells were cocultured in 24-well plates with PyMT8119-OVA cells in different ratios of effector T-cells:tumor cells (E:T). After 5 days of coculture, T-cells and debris were removed, washed with media and stained with Sulforhodamine B (SRB) for measuring cytotoxicity (Vichai and Kirtikara 2006). […]

Molecule | increase of mRNA expression of LCoR (LCoR) [fold change] | sensitivity to immune detection and killing (PyMT8119-OVA cells)
COc1cccc2c1C(=O)c1c(O)c3c(c(O)c1C2=O)C[C@@](O)(C(=O)CO)C[C@@H]3O[C@H]1C[C@H](N)[C@H](O)[C@H](C)O1 [Doxorubicin] | 2.3 | –
Atezolizumab | – | enhanced sensitivity to immune detection and killing

Reference: US20230287415A1, “COMBINED THERAPY AGAINST CANCER” (FUNDACIÓ INSTITUT HOSPITAL DEL MAR D'INVESTIGACIONS …, priority 2020, published 2023)
